Test results: patent US20170224764A1, “THERAPEUTIC TARGETING OF MITOCHONDRIA TO PREVENT OSTEOARTHRITIS” (Cornell University, priority 2016, published 2017)
Entries after “also recorded” stand apart in the source; their conditions may differ.

Key:
Format in all cases: cell-based, bovids
[1] = tested on: chondrocytes in cartilage explants; experiment: Chondrocyte viability, live/dead staining (calcein AM / ethidium homodimer) of impacted cartilage explants, confocal microscopy; conditions: 1 μM
Experimental: (§1) Cartilage was harvested from the knee joints of 4 neonatal bovids (n=30 explants). Cartilage explants were subjected to unconfined compression (24.0±1.4 MPa peak stress; 53.8±5.3 GPa/s peak stress rate) using a validated single-impact subcritical damage model.
(§2) Cartilage explants were treated with 1 μM D-Arg-Dmt-Lys-Phe-NH2 (SS-31) immediately after injury (T0), one hour following injury (T1), or 6 hours after injury (T6), and then cultured for 7 days. Cartilage conditioned media (CCM) was sampled at T0, T1, T6, and every 24 hours after injury (T24-168) for 7 days.
(§3) Explants were stained with calcein AM and ethidium homodimer (for live and dead cells, respectively) to assess chondrocyte viability at T24 and T168 using confocal microscopy. Live, dead and total cell numbers were quantified in z-stacked digital images using a custom ImageJ macro. To quantify cell membrane damage, CCM was analyzed using a colorimetric lactate dehydrogenase (LDH) activity assay, and cumulative cell membrane damage over the 7-day incubation period was determined for each explant.
(§4) Tissue harvest. Full thickness cartilage explants were harvested from the knee joints of healthy bovids (n=8 animals, 1-3 days of age) within 48 hours of sacrifice using an 8 mm biopsy punch. Specimens were rinsed in phosphate-buffered saline (PBS), trimmed to a uniform thickness of 3 mm from the articular surface using a custom jig, and placed in cartilage explant media (phenol free DMEM containing 1% FBS, HEPES 0.025 ml/ml, penicillin 100 U/mL, streptomycin 100 U/mL and 0.1 g/L glucose).
(§5) Rapid impact injury model. Explants were subjected to injury using rapid-impact model or served as unimpacted controls (as described in Example 3). Briefly, explants were positioned in a well containing PBS under the plane-ended tip of a spring-loaded impacting device. The impactor was used to deliver a single, rapid cycle of unconfined axial compression (24.0±1.4 MPa peak stress; 53.8±5.3 GPa/s peak stress rate). Impact force was measured at 50 kHz by a load cell (PCBPiezotronics, Depew, N.Y.) attached to the impactor tip. Voltage from the load cell was recorded with a custom LabVIEW program (NI, Austin Tex.). The impact magnitude was adjusted by setting the deflection of the impactor's internal spring and mechanical parameters for each impact were calculated (as described in Example 3).
D-Arg-2′,6′-Dmt-Lys-Phe-NH2 (SS-31) treatment. Following injury, explants were cut perpendicular to the articular surface into 2 hemicylinders using a custom cutting jig to ensure uniform geometry. Cartilage was kept moist at all times and each cut was performed with a fresh (unused) and lubricated cutting instrument. Handling of the experimental tissues was strictly minimized at each step. Explants were placed directly into an individual well of a 24-well untreated tissue culture plate containing a known volume (1.5 ml) of cartilage explant media. Cartilage hemicylinders were randomly assigned to one of 10 treatment groups (n=6/group, FIG. 22). Injured (I) and uninjured control (C) explants in the non-treated groups (ITno, CTno) were placed into wells containing only media. Explants in the time zero treatment groups (IT0, CT0) were placed directly into media containing 1 μM D-Arg-2′,6′-Dmt-Lys-Phe-NH2(SS-31). Explants in the one-hour treatment groups (IT1, CT1) were placed into media only and D-Arg-2′,6′-Dmt-Lys-Phe-NH2(1 μM) was added to the wells 1 hour after impact. Explants in the six-hour treatment groups (IT6, CT6) were placed into media only and D-Arg-2′,6′-Dmt-Lys-Phe-NH2 (1 μM) was added 6 hours after impact. Explants in the twelve-hour treatment groups (IT12, CT12) were placed into media only and D-Arg-2′,6′-Dmt-Lys-Phe-NH2 (1 μM) was added 12 hours after impact. Explants were maintained under standard tissue culture conditions (36° C. and 21% O2) for 7 days. Medium was sampled at 1, 6, and 12 hours, and at 3, 5, and 7 days after impact, and stored at −80° C. until biochemical assays were performed. […]

[2] = tested on: cartilage explants; experiment: Cell membrane damage, lactate dehydrogenase (LDH) activity assay on cartilage conditioned media; conditions: 1 μM
Experimental: as §1, §2, §3, §4
Rapid impact injury model. Explants were subjected to injury using rapid-impact model or served as unimpacted controls (as described in Example 3). […] Impact force was measured at 50 kHz by a load cell (PCBPiezotronics, Depew, N.Y.) attached to the impactor tip. Voltage from the load cell was recorded with a custom LabVIEW program (NI, Austin Tex.). The impact magnitude was adjusted by setting the deflection of the impactor's internal spring and mechanical parameters for each impact were calculated (as described in Example 3). […]

[3] = tested on: chondrocytes in cartilage explants; experiment: Apoptosis, activated caspase 3/7 staining of impacted cartilage explants; conditions: Example 6, 1 μM
Experimental: as §4, §5
D-Arg-2′,6′-Dmt-Lys-Phe-NH2 (SS-31) treatment. […]

[4] = tested on: cartilage explants; experiment: Cartilage matrix degradation, GAG loss into the media by DMMB assay; conditions: 1 μM
Experimental: as §1
[…] Cartilage conditioned media (CCM) was sampled at T0, T1, T6, and every 24 hours after injury (T24-168) for 7 days.
Cartilage matrix degradation was quantified by measuring GAG loss into the media via DMMB assay.
as §4, §5
D-Arg-2′,6′-Dmt-Lys-Phe-NH2 (SS-31) treatment. […] Cartilage was kept moist at all times and each cut was performed with a fresh (unused) and lubricated cutting instrument. Handling of the experimental tissues was strictly minimized at each step. Explants were placed directly into an individual well of a 24-well untreated tissue culture plate containing a known volume (1.5 ml) of cartilage explant media. Cartilage hemicylinders were randomly assigned to one of 10 treatment groups (n=6/group, FIG. 22). Injured (I) and uninjured control (C) explants in the non-treated groups (ITno, CTno) were placed into wells containing only media. […]
Cartilage GAG loss. To determine if D-Arg-2′,6′-Dmt-Lys-Phe-NH2 could provide structural protection after impact injury, the loss of glycosaminoglycan (GAG) was determined by routine 1,9-dimethyl-methylene blue dye binding (DMMB) assay. […] Total GAG content was read […], and expressed as the total GAG released into cartilage conditioned media over the culture period per μg dry weight of cartilage. […]

Substance: D-Arg-2′,6′-Dmt-Lys-Phe-NH2
- chondrocyte death at 24 hours ([1]; Example 2, treatment at 0, 1 or 6 hours after impact, versus untreated impacted cartilage): significantly reduced
- chondrocyte viability / death in injury+treatment groups compared with un-injured controls ([1]; Example 6, day 1, treatment at 0, 1 or 6 hours): equivalent to uninjured controls
- reduction in impact-induced chondrocyte death, treated versus untreated explants ([1]; Example 6, day 1, treatment at 0, 1 or 6 hours after impact): over 50%
- cell death at 1 day post-injury ([1]; Example 6, injured groups treated at 0, 1 or 6 hours (IT0, IT1, IT6) versus untreated injured): potently reduced cell death; also recorded: effective at preventing chondrocyte death
- effect of treatment time on cell death ([1]; Example 6, injury groups treated at 0, 1 or 6 hours, p=0.93): no effect of treatment time
- chondrocyte death (% dead cells) compared with untreated, injured controls ([1]; Example 6, treatment at 0, 1, 6 or 12 hours after impact): reduced chondrocyte death; also recorded: reduced as compared to untreated, injured controls
- impact-induced cell death on day 7 ([1]; Example 6, treatment immediately, at 1 hour or at 6 hours after impact): prevented impact-induced cell death to a similar degree; also recorded: effective at preventing chondrocyte death
- cumulative cell membrane damage (LDH activity) over the 7 days following injury ([2]; Example 2, treated versus untreated impacted cartilage): prevents cell membrane damage; also recorded: lower in treated than untreated cartilage
- cumulative cell membrane damage, LDH activity in cartilage conditioned media over the 7 days following injury ([2]; Example 6, injured, treated versus injured, untreated cartilage, p=0.0005): approximately twofold lower; also recorded: lower than injured, untreated explants
- cumulative LDH in uninjured controls ([2]; Example 6, uninjured, treated versus untreated controls, p=0.05): lower cumulative LDH than untreated controls; also recorded: protective effect against cell membrane damage
- impact-induced apoptosis (caspase 3/7 positive cells) at 1 day ([3]; 1 day after cartilage injury, p=0.007): prevented impact-induced apoptosis; also recorded: equivalent to uninjured controls
- impact-induced apoptosis (caspase 3/7 positive cells) at 7 days ([3]; 7 days after cartilage injury, p=0.04): prevented impact-induced apoptosis; also recorded: equivalent to uninjured controls
- impact-induced GAG loss into the media ([4]; Example 2, treatment at 0, 1 or 6 hours after impact, 96 hr post impact): decreased GAG loss
- decrease of impact-induced GAG loss ([4]; Example 6, cumulative GAG loss, p=0.002): ~30%
- cartilage matrix degeneration (GAG loss into the media) compared with uninjured controls ([4]; Example 6, treatment at 0, 1 or 6 hours after impact): equivalent to uninjured controls
- cartilage matrix degeneration (GAG loss into the media) compared with untreated, injured controls ([4]; Example 6, treatment at 12 hours after impact): reduced cartilage matrix degeneration
